Data on 24 compounds can be found in patent US20110257168A1, “DERIVATIVES OF OXABISPIDINE AS NEURONAL NICOTINIC ACETYLCHOLINE RECEPTOR LIGANDS” (Targacept, Inc., priority 2008, published 2011).

One assay addresses T1, Rat α4β2 (Rattus norvegicus, UniProt P09483+P12390).
T1 construct: Preparation of membranes from rat tissues; Rat cortices were obtained from Analytical Biological Services; tissue Analytical Biological Services, Incorporated (ABS, Wilmington, Del.); host or cells: rat cortex membranes (female Sprague-Dawley)
Kind of assay: Competition binding to rat α4β2 receptors in membrane preparations. As for the experimental part: (§1) Preparation of membranes from rat tissues. Rat cortices were obtained from Analytical Biological Services, Incorporated (ABS, Wilmington, Del.). Tissues were dissected from female Sprague-Dawley rats, frozen and shipped on dry ice. Tissues were stored at −20° C. until needed for membrane preparation. Cortices from 10 rats were pooled and homogenized by Polytron (Kinematica GmbH, Switzerland) in 10 volumes (weight:volume) of ice-cold preparative buffer (KCl, 11 mM; KH2PO4, 6 mM; NaCl 137 mM; Na2HPO4 8 mM; HEPES (free acid), 20 mM; iodoacetamide, 5 mM; EDTA, 1.5 mM; 0.1 mM PMSF pH 7.4). The resulting homogenate was centrifuged at 40,000 g for 20 minutes at 4° C. and the resulting pellet was resuspended in 20 volumes of ice-cold water. After 60-minute incubation at 4° C., a new pellet was collected by centrifugation at 40,000 g for 20 minutes at 4° C. The final pellet was resuspended in preparative buffer and stored at −20° C. On the day of the assay, tissue was thawed, centrifuged at 40,000 g for 20 minutes and then resuspended in PBS (Dulbecco's Phosphate Buffered Saline, Life Technologies, pH 7.4) to a final concentration of 2-3 mg protein/mL. Protein concentrations were determined using the Pierce BCA Protein Assay kit (Pierce Biotechnology, Rockford, Ill.), with bovine serum albumin as the standard. Preparation of membranes from clonal cell lines. Cells were harvested in ice-cold PBS, pH 7.4, then homogenized with a polytron (Brinkmann Instruments, Westbury, N.Y.). Homogenates were centrifuged at 40,000 g for 20 minutes (4° C.). The pellet was resuspended in PBS and protein concentration determined using the Pierce BCA Protein Assay kit (Pierce Biotechnology, Rockford, Ill.).
(§2) Competition binding to receptors in membrane preparations. Binding to nicotinic receptors was assayed on membranes using standard methods adapted from published procedures (Lippiello and Fernandes, 1986; Davies et al., 1999). In brief, membranes were reconstituted from frozen stocks (approximately 0.2 mg protein) and incubated for 2 h on ice in […] assay buffer (PBS) in the presence of competitor compound (0.001 nM to […]) and radioligand. [^3H]-nicotine (L-(−)-[N-methyl-3H]-nicotine, 69.5 Ci/mmol, Perkin-Elmer Life Sciences) was used for human α4β2 binding studies. [^3H]-epibatidine (52 Ci/mmol, Perkin-Elmer Life Sciences) was used for binding studies at the other receptor subtypes. Incubation was terminated by rapid filtration on a multimanifold tissue harvester (Brandel, Gaithersburg, Md.) using GF/B filters presoaked in 0.33% polyethyleneimine (w/v) to reduce non-specific binding. Filters were washed 3 times and the radioactivity retained was determined by liquid scintillation counting.
(§3) Binding data analysis. Binding data were expressed as percent total control binding. Replicates for each point were averaged and plotted against the log of drug concentration. The IC50 (concentration of the compound that produces 50% inhibition of binding) was determined by least squares non-linear regression using GraphPad Prism software (GraphPAD, San Diego, Calif.). Ki was calculated using the Cheng-Prusoff equation (Cheng and Prusoff, 1973).

For another assay, the target named is human α4β2 (Homo sapiens, UniProt P17787+P43681). In words: Competition binding to human α4β2 receptors in membrane preparations. As for the experimental part: (§4) SH-EP1/human α4β2 (Eaton et al., 2003), SH-EP1/human α4β4 (Gentry et al., 2003), SH-EP1/α6β3β4α5 (Grinevich et al., 2005), TE671/RD and SH-SY5Y cell lines (obtained from Dr. Ron Lukas, Barrow Neurological Institute) were maintained in proliferative growth phase in Dulbecco's modified Eagle's medium (Gibco/BRL) with 10% horse serum (Gibco BRL), 5% fetal bovine serum (HyClone, Logan Utah), 1 mM sodium pyruvate, 4 mM L-glutamine. For maintenance of stable transfectants, the α4β2 and α4β4 cell media was supplemented with 0.25 mg/mL zeocin and 0.13 mg/mL hygromycin B. Selection was maintained for the α6β3β4α5 cells with 0.25 mg/mL of zeocin, 0.13 mg/mL of hygromycin B, 0.4 mg/mL of geneticin, and 0.2 mg/mL of blasticidin. HEK/human α7/RIC3 cells (obtained from J. Lindstrom, U. Pennsylvania) were maintained in proliferative growth phase in Dulbecco's modified Eagle's medium (Gibco/BRL) with 10% fetal bovine serum (HyClone, Logan Utah), 1 mM sodium pyruvate, 4 mM L-glutamine, 0.4 mg/mL geneticin; 0.2 mg/ml hygromycin B.
as §1, §2
(§5) Binding data analysis. Binding data were expressed as percent total control binding. Replicates for each point were averaged and plotted against the log of drug concentration. […]

A further assay addresses T2, Human α7 (Homo sapiens, UniProt P36544).
T2 construct: host or cells: HEK cells co-expressing RIC3
Kind of assay: Competition binding to human α7 receptors in membrane preparations. As for the experimental part: as §4, §1, §2, §5

Another assay has as its target T3, Rat α7 (Rattus norvegicus, UniProt Q05941).
T3 construct: Preparation of membranes from rat tissues; Rat cortices were obtained from Analytical Biological Services; tissue Analytical Biological Services, Incorporated (ABS, Wilmington, Del.); host or cells: rat brain membranes (only cortex is described)
Kind of assay: Competition binding to rat α7 receptors in membrane preparations. The conditions noted are these: membranes, [3H]-epibatidine competition; Ki by Cheng-Prusoff; read-out: Rat α7 Ki. As for the experimental part: as §1, §2, §3

Setting [1] is: membranes, [3H]-epibatidine competition, Ki by Cheng-Prusoff, read-out: Rat α4β2 Ki.
Setting [2] is: membranes, [3H]-epibatidine competition, Ki by Cheng-Prusoff, read-out: Human α7 Ki.
[3] abbreviates: membranes, [3H]-nicotine competition, Ki by Cheng-Prusoff, read-out: human α4β2 Ki.

Read-outs that look alike come from different tables or passages of the source.

Consider `Clc1ccccc1Oc1cncc(N2CC3CNCC(C2)O3)c1` [3-(5-(2-chlorophenoxy)pyridin-3-yl)-9-oxa-3,7-diazabicyclo[3.3.1]nonane], for which the Ki (in general, the equilibrium dissociation constant of an inhibitor or competing ligand from its target) at Rat α4β2 (setting [1]) turned out to be 14 nM; at human α4β2, 3.6 nM; at Human α7 (setting [2]), 430 nM.

`CN1CC2CN(c3cncc(F)c3)CC(C1)O2` [3-(5-fluoropyridin-3-yl)-7-methyl-9-oxa-3,7-diazabicyclo[3.3.1]nonane]: the figures for the inhibitory constant (Ki) at Rat α4β2 (setting [1]), on human α4β2 (setting [3]) and on Human α7 (setting [2]) were 280 nM, 33 nM and 2100 nM, respectively.

Regarding `c1cnc(N2CC3CNCC(C2)O3)cn1` [3-(pyrazin-2-yl)-9-oxa-3,7-diazabicyclo[3.3.1]nonane], the inhibitory constant (Ki) at Rat α4β2 (setting [1]) was 250 nM; on human α4β2 (setting [3]) it was 37 nM; at Human α7 (setting [2]) it was 2200 nM.

On to `CN1CC2CN(c3cccnc3)CC(C1)O2` [3-methyl-7-(pyridin-3-yl)-9-oxa-3,7-diazabicyclo[3.3.1]nonane], for which the inhibition constant Ki at Rat α4β2 (setting [1]) was 180 nM; on human α4β2 (setting [3]), 95 nM; on Human α7 (setting [2]), 5900 nM.

As to `c1ncc(N2CC3CNCC(C2)O3)cc1C1CC1` [3-(5-cyclopropylpyridin-3-yl)-9-oxa-3,7-diazabicyclo[3.3.1]nonane], the Ki at Rat α4β2 was 6.4 nM; at human α4β2 (setting [3]), 2 nM; at Human α7 (setting [2]), 1300 nM.

Regarding `Clc1ccc(N2CC3CNCC(C2)O3)nn1` [3-(6-chloropyridazin-3-yl)-9-oxa-3,7-diazabicyclo[3.3.1]nonane], the values for the Ki on Rat α4β2 (setting [1]), at human α4β2 and at Human α7 (setting [2]) were 96 nM, 63 nM and 1300 nM, respectively.

On to `N#Cc1ncc(N2CC3CNCC(C2)O3)cc1OC(F)F` [3-(6-cyano-5-(difluoromethoxy)pyridin-3-yl)-9-oxa-3,7-diazabicyclo[3.3.1]nonane], for which the values for the Ki at Rat α4β2, on human α4β2 (setting [3]) and on Human α7 (setting [2]) were 0.12 nM, 0.26 nM and 940 nM, respectively.

`COc1cccc(N2CC3CNCC(C2)O3)c1` [3-(3-methoxyphenyl)-9-oxa-3,7-diazabicyclo[3.3.1]nonane]: the Ki on Rat α4β2 (setting [1]) was 110 nM; at human α4β2 (setting [3]), 33 nM; at Human α7 (setting [2]) it was 800 nM.

For the compound `FC(F)Oc1cncc(N2CC3CNCC(C2)O3)c1` [3-(5-(difluoromethoxy)pyridin-3-yl)-9-oxa-3,7-diazabicyclo[3.3.1]nonane], the Ki worked out at 0.36 nM at Rat α4β2 (setting [1]), 0.42 nM at human α4β2 and 1600 nM at Human α7 (setting [2]).

As for `Clc1ncc(N2CC3CNCC(C2)O3)cc1C1CC1` [3-(5-cyclopropyl-6-chloropyridin-3-yl)-9-oxa-3,7-diazabicyclo[3.3.1]nonane], the values for the inhibitory constant (Ki) at Rat α4β2, at human α4β2 (setting [3]) and on Human α7 were 14 nM, 0.18 nM and 87 nM, respectively.

Take `c1cc2cc(N3CC4CNCC(C3)O4)cnc2o1` [3-(furo[2,3-b]pyridin-5-yl)-9-oxa-3,7-diazabicyclo[3.3.1]nonane]: the Ki on Rat α4β2 worked out at 23 nM; at human α4β2 (setting [3]), 48 nM; on Human α7 (setting [2]) it was 6600 nM.

Take `N#Cc1cncc(N2CC3CNCC(C2)O3)c1` [3-(5-cyanopyridin-3-yl)-9-oxa-3,7-diazabicyclo[3.3.1]nonane]: the Ki at Rat α4β2 was determined as 11 nM; at human α4β2 (setting [3]), 2.7 nM; at Human α7 (setting [2]) it was 2000 nM.

On to `FC(F)(F)c1ccc(N2CC3CNCC(C2)O3)cn1` [3-(6-trifluoromethylpyridin-3-yl)-9-oxa-3,7-diazabicyclo[3.3.1]nonane], for which the inhibitory constant (Ki) is 48 nM on Rat α4β2 (setting [1]), 6.8 nM at human α4β2 and 1900 nM at Human α7 (setting [2]).

With `c1cc2ncc(N3CC4CNCC(C3)O4)cc2o1` [3-(furo[3,2-b]pyridin-6-yl)-9-oxa-3,7-diazabicyclo[3.3.1]nonane], the inhibitory constant (Ki) was 91 nM on Rat α4β2, 50 nM at human α4β2 (setting [3]) and 5700 nM on Human α7 (setting [2]).

For the compound `c1ncc(N2CC3CNCC(C2)O3)cc1OCC1CC1` [3-(5-(cyclopropylmethoxy)pyridin-3-yl)-9-oxa-3,7-diazabicyclo[3.3.1]nonane], the inhibitory constant (Ki) on Rat α4β2 was 2.9 nM; at human α4β2 (setting [3]) it was 0.5 nM; at Rat α7 it was 9300 nM.

For `FC(F)(F)c1cncc(N2CC3CNCC(C2)O3)c1` [3-(5-trifluoromethylpyridin-3-yl)-9-oxa-3,7-diazabicyclo[3.3.1]nonane], the Ki at Rat α4β2 came to 9.7 nM; on human α4β2 (setting [3]) it was 3.8 nM; at Rat α7 it was 17000 nM.

On to `FC(F)Oc1cc(N2CC3CNCC(C2)O3)cnc1Cl` [3-(6-chloro-5-(difluoromethoxy)pyridin-3-yl)-9-oxa-3,7-diazabicyclo[3.3.1]nonane], for which the inhibition constant Ki at Rat α4β2 amounted to 0.08 nM; on human α4β2 (setting [3]) it was 0.16 nM; on Human α7 (setting [2]) it was 560 nM.

Turning to `N#Cc1ccc(N2CC3CNCC(C2)O3)cn1` [3-(6-cyanopyridin-3-yl)-9-oxa-3,7-diazabicyclo[3.3.1]nonane], the Ki came out at 290 nM at Rat α4β2 (setting [1]), 42 nM at human α4β2 (setting [3]) and 8100 nM on Human α7 (setting [2]).

Turning to `FCCOc1cc(N2CC3CNCC(C2)O3)cnc1Cl` [3-(5-(2-fluoroethoxy)-6-chloropyridin-3-yl)-9-oxa-3,7-diazabicyclo[3.3.1]nonane], the results for the Ki on Rat α4β2, at human α4β2 (setting [3]) and at Human α7 (setting [2]) were 0.41 nM, 0.21 nM and 1600 nM, respectively.

In the case of `FCCCOc1cc(N2CC3CNCC(C2)O3)cnc1Cl` [3-(5-(3-fluoropropoxy)-6-chloropyridin-3-yl)-9-oxa-3,7-diazabicyclo[3.3.1]nonane], the inhibitory constant (Ki) stood at 0.73 nM on Rat α4β2, 0.38 nM on human α4β2 (setting [3]) and 1900 nM on Human α7 (setting [2]).

On to `CC(C)Oc1cncc(N2CC3CNCC(C2)O3)c1` [3-(5-isopropoxypyridin-3-yl)-9-oxa-3,7-diazabicyclo[3.3.1]nonane], for which the inhibition constant (Ki) at Rat α4β2 turned out to be 1.3 nM; at human α4β2 (setting [3]), 0.9 nM; on Rat α7, 61000 nM.

For the compound `Cc1cncc(N2CC3CN(C)CC(C2)O3)c1` [3-(5-methylpyridin-3-yl)-7-methyl-9-oxa-3,7-diazabicyclo[3.3.1]nonane], the inhibition constant (Ki) on Rat α4β2 (setting [1]) was 370 nM; on human α4β2 (setting [3]), 25 nM; at Human α7 (setting [2]), 8700 nM.

As to `COc1cc(N2CC3CNCC(C2)O3)cnc1F` [3-(5-methoxy-6-fluoropyridin-3-yl)-9-oxa-3,7-diazabicyclo[3.3.1]nonane], the Ki on Rat α4β2 (setting [1]) worked out at 1.1 nM; on human α4β2 it was 0.43 nM; on Human α7 (setting [2]), 1000 nM.

As for `Cc1ccc(N2CC3CNCC(C2)O3)cn1` [3-(6-methylpyridin-3-yl)-9-oxa-3,7-diazabicydo[3.3.1]nonane], the Ki at Rat α4β2 (setting [1]) stood at 30 nM; on human α4β2 it was 4.9 nM; on Human α7 (setting [2]) it was 600 nM.
